Data as given in patent US20240366679A1, “METHOD FOR TREATING IMMUNE DISEASES USING CALCINEURIN INHIBITOR AND STEM CELLS” (KANGSTEM BIOTECH CO., LTD., priority 2021, published 2024).
“Also recorded” adds a separate entry of the source.

Tests used:
[1] = tested on: TGF-β expressed in hUCB-MSCs; experiment: TGF-β ELISA of hUCB-MSC supernatant; format: cell-based, human; conditions: pimecrolimus 0.01 to 100 ng/ml, 72 hours, FIG. 4A
Method: (§1) Specifically, hUCB-MSCs were seeded in a 6-well cell culture plate at a density of 1.5×10^5 cells per well. After 24 hours of incubation, hUCB-MSCs were treated with pimecrolimus at various concentrations and further incubated for 72 hours. After the incubation was completed, the supernatant was collected by centrifugation and the thus-obtained supernatant was applied to Human […] Quantikine ELISA (R&D Systems, Minneapolis, MN, USA) and Human PGE2. Quantikine ELISA (R&D Systems) to analyze the expression level of TGF-β or prostaglandin E2 (PGE2) (FIGS. 4A and 4B).

hUCB-MSC [2] = experiment: Cell cycle analysis of hUCB-MSC; format: cell-based; conditions: pimecrolimus 0.01 to 100 ng/ml, 3 days; FIG. 2C
Method: Next, the stem cells (hUCB-MSC) were cultured and treated with various concentrations of pimecrolimus for 3 days, and then the change in cell cycle profile of hUCB-MSC were compared using cell cycle analysis (FIG. 2C).

[3] = tested on: PGE2 expressed in hUCB-MSCs; experiment: PGE2 ELISA of hUCB-MSC supernatant; format: cell-based, human; conditions: pimecrolimus 0.01 to 100 ng/ml, 72 hours, FIG. 4B
Method: as §1

hUCB-MSC [4] = experiment: Cellular morphology of hUCB-MSC; format: cell-based; conditions: pimecrolimus 0.01 to 100 ng/ml, 3 days; FIG. 2D
Method: Next, the stem cells (hUCB-MSC) were cultured and treated with various concentrations of pimecrolimus for 3 days, and then the change in cellular morphology of hUCB-MSC were compared (FIG. 2D).

[5] = tested on: hUCB-MSC surface markers (CD45, CD34, CD36, CD105, CD29, CD73); experiment: Flow cytometry of surface markers of hUCB-MSC; format: cell-based; conditions: pimecrolimus 100 ng/ml, 3 days, FIG. 2E
Method: Lastly, the stem cells (hUCB-MSC) were cultured and treated with 100 ng/ml of pimecrolimus for 3 days, and then the expression levels of surface markers (CD45, CD34, CD36, CD105, CD29, CD73) of hUCB-MSC were compared using flow cytometry. (FIG. 2E).

[6] = tested on: COX2 expressed in hUCB-MSCs; experiment: Western blot of COX2 in hUCB-MSC lysate; format: cell-based; conditions: pimecrolimus 0.01 to 100 ng/ml, 72 hours, GAPDH internal control, FIG. 4C
Method: hUCB-MSCs treated with pimecrolimus were obtained according to the method of Example 3-2, centrifuged to collect the precipitated cells, and then disrupted to obtain cell lysate. Subsequently, Western blot analysis was performed using the thus-obtained cell lysate and COX2 antibodies (FIG. 4C). In particular, GAPDH was used as an internal control.

[7] = tested on: PBMC cells treated with Concanavalin A (ConA); experiment: MLR analysis, immunosuppressive activity on ConA-treated PBMC; format: cell-based
Method: PBMC cells treated with Concanavalin A (ConA) were cultured and treated with pimecrolimus and mesenchymal stem cells (hUCB-MSC) individually or in combination, and then the immunosuppressive activity measured in each experimental group was compared (FIG. 3). In particular, PBMC cells that were not treated with ConA, not co-cultured with hUCB-MSC, and not treated with pimecrolimus were used as the negative control (NC), and as the positive control (PC) treated with ConA, PBMC cells that were not co-cultured with hUCB-MSC and not treated with pimecrolimus were used as the positive control (PC).
Specifically, PBMC cells treated with Concanavalin A (ConA) were cultured and treated with pimecrolimus and hUCB-MSC individually or in combination, and then the immunosuppressive activity measured in each experimental group was compared.
In particular, 10 experimental groups were set according to the combination pattern of pimecrolimus and hUCB-MSC (Table 1)

hUCB-MSC [8] = experiment: Proliferative capacity of hUCB-MSC; format: cell-based; conditions: pimecrolimus 0.01 to 100 ng/ml, 3 days; FIG. 2B
Method: Next, the stem cells (hUCB-MSC) were cultured and treated with various concentrations of pimecrolimus for 3 days, and then the change in proliferative capacity of hUCB-MSC were compared (FIG. 2B).

hUCB-MSC [9] = experiment: MTT assay, cell viability of hUCB-MSC; format: cell-based; conditions: pimecrolimus various concentrations, 3 days, FIG. 2A
Method: First, the stem cells (hUCB-MSC) were cultured and treated with various concentrations of pimecrolimus for 3 days, and then the change in cell viability of hUCB-MSC were compared using the MTT assay (FIG. 2A).

CC[C@@H]1/C=C(\C)C[C@H](C)C[C@H](OC)[C@H]2O[C@@](O)(C(=O)C(=O)N3CCCC[C@H]3C(=O)O[C@H](/C(C)=C/[C@@H]3CC[C@H](Cl)[C@H](OC)C3)[C@H](C)[C@@H](O)CC1=O)[C@H](C)C[C@@H]2OC [pimecrolimus]
level of TGF-β expressed in hUCB-MSCs [1]: did not show a significant change
change in cell cycle profile of hUCB-MSC (hUCB-MSC [2]): did not change the cell cycle profile
level of PGE2 expressed in hUCB-MSCs [3]: rapidly reduced in proportion to the treatment concentrations
change in cellular morphology of hUCB-MSC (hUCB-MSC [4]): did not change the cellular morphology
expression levels of surface markers of hUCB-MSC [5]: did not change the expression levels of surface markers
level of COX2 expressed in hUCB-MSCs [6]: rapidly reduced in proportion to the treatment concentrations; also recorded: inhibit the expression of COX2
immune activity of ConA-treated PBMC (immunosuppressive activity) ([7]; Example 3-1, treated individually or in combination, versus ConA positive control, FIG. 3): the immune activity was suppressed
immunosuppressive activity, separate treatment ([7]; each treated alone, 3 to 7 days or 5 to 7 days (Experimental Groups 2 and 3; 5 and 9), FIG. 5A): comparatively superior over the immunosuppressive activity of hUCB-MSCs
change in proliferative capacity of hUCB-MSC (hUCB-MSC [8]): did not change the proliferative capacity
change in cell viability of hUCB-MSC (hUCB-MSC [9]): did not change the cell viability
